{
  "source": "paper PMC3201940",
  "about": "“A Robust and Rapid Method of Producing Soluble, Stable, and Functional G-Protein Coupled Receptors” (PLoS ONE, 2011)",
  "molecular_target": "T1, hVN1R1 (Homo sapiens, UniProt Q9GZP7)",
  "T1 construct": "gene VN1R1",
  "T1 sequence (Q9GZP7 1-353)": "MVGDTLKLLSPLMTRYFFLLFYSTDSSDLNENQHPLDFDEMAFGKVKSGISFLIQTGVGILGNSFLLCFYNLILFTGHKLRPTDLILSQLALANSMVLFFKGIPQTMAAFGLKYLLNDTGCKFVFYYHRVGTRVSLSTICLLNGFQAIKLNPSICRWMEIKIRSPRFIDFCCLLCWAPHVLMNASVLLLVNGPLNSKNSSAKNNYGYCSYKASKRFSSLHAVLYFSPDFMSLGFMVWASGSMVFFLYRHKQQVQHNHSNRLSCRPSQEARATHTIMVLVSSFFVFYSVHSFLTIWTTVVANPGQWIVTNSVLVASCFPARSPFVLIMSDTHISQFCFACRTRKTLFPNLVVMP",
  "assay": "label-free microscale thermophoresis (tryptophan fluorescence), purified receptor, heat-denatured control",
  "type": "binding",
  "data": [
    {"smiles": "C=C(C)C1CC=C(C)C(O)C1", "note": "(mixture of isomers) [carveol]", "values": [
      {"measurement": "EC50", "value": "3.5 ± 0.7", "unit": "µM"}
    ]}
  ]
}
